Reference: publication PMC7215599, “Synthesis, Antitumor Evaluation, Molecular Modeling and Quantitative Structure–Activity Relationship (QSAR) of Novel 2-[(4-Amino-6-N-substituted-1,3,5-triazin-2-yl)methylthio]-4-chloro-5-methyl-N-(1H-benzo[d]imidazol-2(3H)-ylidene)Benzenesulfonamides” (International Journal of Molecular Sciences, 2020)

Key:
[1] = system: MCF-7 (breast cancer) cell line; assay: MTT cell viability assay, MCF-7; assay type: cell-based, human; conditions: MTT, 72 h, 1-100 µM, mean ± SD
Procedure: (§1) Compounds 6–49 were evaluated in vitro for their effects on the viability of the three human cancer cell lines: HCT-116 (colon cancer), MCF-7 (breast cancer) and HeLa (cervical cancer) as well as the non-cancerous keratinocyte cell line (HaCaT). The concentration required for 50% inhibition of cell viability IC50 was calculated and compared with the reference drug cisplatin, the results are shown in Table 1.
(§2) Cell lines: colon cancer (HCT-116), breast cancer (MCF-7), cervical cancer (HeLa), the human keratinocyte cell line (HaCaT); NT—not tested; IC50 was measured at concentrations 1, 10, 25, 50, and 100 µM. IC50 values are expressed as the mean ± SD of at last three independent experiments.
(§3) All chemicals, if not stated otherwise, were obtained from Sigma–Aldrich (St. Louis, MO, USA). The HCT-116 cell lines was purchased from ATCC (ATCC-No: CCL-247), while the MCF-7, HeLa and HaCaT cell lines were purchased from Cell Lines Services (Eppelheim, Germany). Cells were cultured in Dulbecco’s modified Eagle’s medium (DMEM) supplemented with 10% fetal bovine serum, 2 mM glutamine, 100 units/mL penicillin, and 100 µg/mL streptomycin. Cultures were maintained in a humidified atmosphere with 5% carbon dioxide at 37 °C in an incubator (Heraceus, HeraCell).
(§4) Cell viability was examined using the MTT (3-(4,5-dimethylthiazol-2-yl)-2,5-diphenyltetrazolium bromide) assay. Cells were seeded in 96-well plates at a density of 5 × 10^3 cells/well and treated for 72 h with the tested compounds in the concentration range of 1–100 µM (1, 10, 25, 50 and 100 µM). Then, MTT (0.5 mg/mL) was added to the medium and cells were further incubated for 2 h at 37 °C. In the next stage, cells were lysed with DMSO and the absorbance of the formazan solution was measured at 550 nm with a plate reader (1420 multilabel counter, Victor, Jügesheim, Germany). The experiment was performed in triplicate. Values are expressed as the mean ± SD of at least three independent experiments. Cisplatin was used as a positive control.

[2] = system: HaCaT (non-cancerous keratinocyte cell line); assay: MTT cell viability assay, HaCaT; assay type: cell-based; conditions: Homo sapiens, 72 h, 1-100 µM, mean ± SD, non-cancerous cells
Procedure: as §1, §2, §3, §4

[3] = system: HeLa (cervical cancer) cell line; assay: MTT cell viability assay, HeLa; assay type: cell-based, human; conditions: for IC50: 72 h, MTT, 1-100 µM, mean ± SD
Procedure: as §1, §2, §3, §4

[4] = system: HCT-116 (colon cancer) cell line; assay: MTT cell viability assay, HCT-116; assay type: cell-based, human; conditions: for IC50: MTT, 72 h, 1-100 µM, mean ± SD
Procedure: as §1, §2, §3, §4

Row | Structure (SMILES) | IC50 ([1]; Homo sapiens, MCF7, 72 h) | IC50 [2] | IC50 ([3]; Homo sapiens, HeLa) | IC50 ([4]; Homo sapiens, HCT-116, 72 h) | IC50 [1] | IC50 [3] | selectivity ratio HaCaT/HeLa ([3]; ratio of IC50 values) | IC50 [4] | selectivity ratio HaCaT/HCT-116 ([4]; ratio of IC50 values)
1 | Cc1cc(S(=O)(=O)N=c2[nH]c3ccccc3[nH]2)c(SCc2nc(N)nc(N3CCN(c4ccccc4F)CC3)n2)cc1Cl [Compound 21, 2-[{4-Amino-6-[4-(2-fluorophenyl)piperazin-1-yl]-1,3,5-triazin-2-yl}metylthio]-N-(1H-benzo[d]imidazol-2(3H)-ylidene)-4-chloro-5-methylbenzenesulfonamide] | 24 ± 1 µM | 32 ± 1 µM | 17 ± 0.5 µM | 15 ± 1 µM | – | – | – | – | –
2 | Cc1cc(S(=O)(=O)N=c2[nH]c3ccccc3[nH]2)c(SCc2nc(N)nc(N(C)C)n2)cc1Cl [Compound 6, 2-{[4-Amino-6-(dimethylamino)-1,3,5-triazin-2-yl]methylthio}-N-(1H-benzo[d]imidazol-2(3H)-ylidene)-4-chloro-5-methylbenzenesulfonamide] | 52 ± 1 µM | 57 ± 3 µM | 50 ± 2 µM | 49 ± 1 µM | – | – | – | – | –
3 | Cc1cc(S(=O)(=O)N=c2[nH]c3ccc(F)cc3[nH]2)c(SCc2nc(N)nc(N(C)c3ccc(Cl)cc3)n2)cc1Cl [Compound 36, 2-[{4-Amino-6-[(4-chlorophenyl)(methyl)amino]-1,3,5-triazin-2-yl}metylthio]-4-chloro-N-(5-fluoro-1H-benzo[d]imidazol-2(3H)-ylidene)-5-methylbenzenesulfonamide] | 37 ± 2 µM | 49 ± 1 µM | 29 ± 1 µM | 18 ± 0.5 µM | – | – | – | – | –
4 | Cc1cc(S(=O)(=O)N=c2[nH]c3ccc(Cl)cc3[nH]2)c(SCc2nc(N)nc(Nc3ccc(F)cc3)n2)cc1Cl [Compound 43, 2-[{4-Amino-6-[(4-fluorophenyl)amino]-1,3,5-triazin-2-yl}methylthio]-4-chloro-N-(5-chloro-1H-benzo[d]imidazol-2(3H)-ylidene)-5-methylbenzenesulfonamide] | 44 ± 2 µM | 55 ± 2 µM | 45 ± 2 µM | 43 ± 1 µM | – | – | – | – | –
5 | Cc1cc(S(=O)(=O)N=c2[nH]c3ccccc3[nH]2)c(SCc2nc(N)nc(Nc3ccccc3)n2)cc1Cl [Compound 11, 2-{[4-Amino-6-(phenylamino)-1,3,5-triazin-2-yl]methylthio}-N-(1H-benzo[d]imidazol-2(3H)-ylidene)-4-chloro-5-methylbenzenesulfonamide] | 41 ± 1 µM | 58 ± 2 µM | 39 ± 1 µM | 37 ± 2 µM | – | – | – | – | –
6 | CC1=NN(c2nc(N)nc(CSc3cc(Cl)c(C)cc3S(=O)(=O)N=c3[nH]c4ccc(F)cc4[nH]3)n2)C(C)(C)C1 [Compound 33, 2-{[4-Amino-6-(3,5,5-trimethyl-4,5-dihydro-1H-pyrazol-1-yl)-1,3,5-triazin-2-yl]metylthio}-4-chloro-N-(5-fluoro-1H-benzo[d]imidazol-2(3H)-ylidene)-5-methylbenzenesulfonamide] | 35 ± 2 µM | 48 ± 2 µM | 30 ± 2 µM | 19 ± 1 µM | – | – | – | – | –
7 | COc1ccccc1N1CCN(c2nc(N)nc(CSc3cc(Cl)c(C)cc3S(=O)(=O)N=c3[nH]c4ccc(Cl)cc4[nH]3)n2)CC1 [Compound 49, 2-[{4-Amino-6-[4-(2-methoxyphenyl)piperazin-1-yl]-1,3,5-triazin-2-yl}methylthio]-4-chloro-N-(5-chloro-1H-benzo[d]imidazol-2(3H)-ylidene)-5-methylbenzenesulfonamide] | 35 ± 1 µM | 96 ± 1 µM | 34 ± 1 µM | 30 ± 1 µM | – | – | – | – | –
8 | Cc1cc(S(=O)(=O)N=c2[nH]c3ccccc3[nH]2)c(SCc2nc(N)nc(N3CCOCC3)n2)cc1Cl [Compound 7, 2-[(4-Amino-6-morpholino-1,3,5-triazin-2-yl)methylthio]-N-(1H-benzo[d]imidazol-2(3H)-ylidene)-4-chloro-5-methylbenzenesulfonamide] | > 100 µM | 102 ± 4 µM | > 100 µM | 75 ± 3 µM | 99 ± 3 µM | 86 ± 3 µM | – | – | –
9 | Cc1cc(S(=O)(=O)N=c2[nH]c3ccccc3[nH]2)c(SCc2nc(N)nc(Nc3ccc(F)cc3)n2)cc1Cl [Compound 12, 2-[{4-Amino-6-[(4-fluorophenyl)amino]-1,3,5-triazin-2-yl}metylthio]-N-(1H-benzo[d]imidazol-2(3H)-ylidene)-4-chloro-5-methylbenzenesulfonamide] | 35 ± 2 µM | 43 ± 2 µM | 36 ± 2 µM | 36 ± 1 µM | – | – | – | – | –
10 | Cc1cc(S(=O)(=O)N=c2[nH]c3ccccc3[nH]2)c(SCc2nc(N)nc(N3CCN(c4ccc(F)c(Cl)c4)CC3)n2)cc1Cl [Compound 26, 2-[{4-Amino-6-[4-(3-chloro-4-fluorophenyl)piperazin-1-yl]-1,3,5-triazin-2-yl}methylthio]-N-(1H-benzo[d]imidazol-2(3H)-ylidene)-4-chloro-5-methylbenzenesulfonamide] | 20 ± 1 µM | 35 ± 1 µM | 21 ± 0.4 µM | 17 ± 0.5 µM | – | – | – | – | –
11 | Cc1cc(S(=O)(=O)N=c2[nH]c3ccc(F)cc3[nH]2)c(SCc2nc(N)nc(Nc3cccc(Cl)c3)n2)cc1Cl [Compound 35, 2-[{4-Amino-6-[(3-chlorophenyl)amino]-1,3,5-triazin-2-yl}methylthio]-4-chloro-N-(5-fluoro-1H-benzo[d]imidazol-2(3H)-ylidene)-5-methylbenzenesulfonamide] | 40 ± 1 µM | 52 ± 2 µM | 39 ± 1 µM | 37 ± 1 µM | – | – | – | – | –
12 | Cc1cc(S(=O)(=O)N=c2[nH]c3ccccc3[nH]2)c(SCc2nc(N)nc(N3CCN(c4cccc(Cl)c4)CC3)n2)cc1Cl [Compound 24, 2-[{4-Amino-6-[4-(3-chlorophenyl)piperazin-1-yl]-1,3,5-triazin-2-yl}methylthio]-N-(1H-benzo[d]imidazol-2(3H)-ylidene)-4-chloro-5-methylbenzenesulfonamide] | 20 ± 0.6 µM | 42 ± 2 µM | 27 ± 0.5 µM | 17 ± 1 µM | – | – | – | – | –
13 | COc1ccc(Nc2nc(N)nc(CSc3cc(Cl)c(C)cc3S(=O)(=O)N=c3[nH]c4ccc(Cl)cc4[nH]3)n2)cc1 [Compound 44, 2-[{4-Amino-6-[(4-methoxyphenyl)amino]-1,3,5-triazin-2-yl}methylthio]-4-chloro-N-(5-chloro-1H-benzo[d]imidazol-2(3H)-ylidene)-5-methylbenzenesulfonamide] | 47 ± 2 µM | 61 ± 2 µM | 50 ± 2 µM | 48 ± 1 µM | – | – | – | – | –
14 | Cc1cc(S(=O)(=O)N=c2[nH]c3ccc(F)cc3[nH]2)c(SCc2nc(N)nc(N3CCN(c4ccc(F)cc4)CC3)n2)cc1Cl [Compound 38, 2-[{4-Amino-6-[4-(4-fluorophenyl)piperazin-1-yl]-1,3,5-triazin-2-yl}metylthio]-4-chloro-N-(5-fluoro-1H-benzo[d]imidazol-2(3H)-ylidene)-5-methylbenzenesulfonamide] | 24 ± 1 µM | 38 ± 2 µM | 18 ± 1 µM | 14 ± 1 µM | – | – | – | – | –
15 | COc1ccc(Nc2nc(N)nc(CSc3cc(Cl)c(C)cc3S(=O)(=O)N=c3[nH]c4ccccc4[nH]3)n2)cc1 [Compound 14, 2-[{4-Amino-6-[(4-methoxyphenyl)amino]-1,3,5-triazin-2-yl}metylthio]-N-(1H-benzo[d]imidazol-2(3H)-ylidene)-4-chloro-5-methylbenzenesulfonamide] | 41 ± 1 µM | 65 ± 3 µM | 56 ± 2 µM | 54 ± 2 µM | – | – | – | – | –
16 | Cc1cc(S(=O)(=O)N=c2[nH]c3ccccc3[nH]2)c(SCc2nc(N)nc(N3CCN(c4ccc(C(F)(F)F)cc4)CC3)n2)cc1Cl [Compound 22, 2-{[4-Amino-6-{4-[4-(trifluoromethyl)phenyl]piperazin-1-yl}-1,3,5-triazin-2-yl]methylthio}-N-(1H-benzo[d]imidazol-2(3H)-ylidene)-4-chloro-5-methylbenzenesulfonamide] | 15 to 24 µM | 34 ± 1 µM | 11 to 18 µM | 7 to 11 µM | 24 ± 1 µM | 11 ± 0.5 µM | 3.1 | 11 ± 0.5 µM | 3.1
17 | Cc1cc(S(=O)(=O)N=c2[nH]c3ccc(Cl)cc3[nH]2)c(SCc2nc(N)nc(N3CCN(c4ccc(Cl)c(Cl)c4)CC3)n2)cc1Cl [Compound 48, 2-[{4-Amino-6-[4-(3,4-dichlorophenyl)piperazin-1-yl]-1,3,5-triazin-2-yl}methylthio]-4-chloro-N-(5-chloro-1H-benzo[d]imidazol-2(3H)-ylidene)-5-methylbenzenesulfonamide] | 32 ± 1 µM | 40 ± 2 µM | 34 ± 1 µM | 34 ± 2 µM | – | – | – | – | –
